Laboratory results from patent US5532223A, “Use of aqueous soluble glucan preparations to stimulate platelet production” (priority 1995, dated 1996).
Where two headings read alike, the source gives them in different places.

Columns and labels:
Human Monocytes = test: TNF-α synthesis by human monocyte monolayers stimulated with glucan preparations (ELISA); type: cell-based; details: for TNF-α / TNF-α Mean ± SD: glucan 1 mg/ml; for TNF-α Mean ± SD: Table 3; for TNF-α stimulation (in words): human monocytes, Tables 3 and 4
From the text: Human peripheral blood mononuclear cells were isolated (Janusz et al., (1987), J. Immunol., 138: 3897-3901) from normal citrated and dextran-treated blood, washed in Hank's balanced salts solution (HBSS), lacking calcium, magnesium, and phenol red, and purified by gradient centrifugation on cushions of Ficoll-Paque (Pharmacia Fine Chemicals, Piscataway, N.J.). The mononuclear cells were collected into HBSS, washed twice, resuspended in RPMI 1640 Medium (Gibco, Grand Island, N.Y.) containing 1% heat-inactivated autologous serum (56° C. for 30 min.), and counted on the Coulter counter.
For the preparation of monocyte monolayers, 1 ml of 2.2×10^6 mononuclear cells/ml was plated into wells of 24-well tissue culture plates (CoStar, Cambridge, Mass.), incubated for 1 h at 37° C. in a humidified atmosphere of 5% CO2, and washed three times with RPMI to remove nonadherent cells. A second 1 ml aliquot of 2.2×10^6 mononuclear cells/ml was layered into each well and incubated for 2 hours as described above before removal of the nonadherent cells. By visual enumeration at 40× with an inverted phase microscope and a calibrated reticule, the number of adherent cells for 30 different donors was 0.77±0.20×10^6 per well (mean±SD). By morphology and nonspecific esterase staining, >95% of the adherent cells were monocytes.
Monocyte monolayers were incubated at 37° C. in the CO2 chamber for 0 to 8 h with 0.5 ml of RPMI, 1% heat-inactivated autologous serum, 10 mM HEPES, and 5 mM MgCl2 in the absence and presence of various glucan preparations. The culture supernatant was removed, clarified by centrifugation at 14,000 g for 5 min at 4° C., and stored at -70° C. before assay of cytokines.
The data are expressed as pg per 10^6 monocytes, which was calculated by dividing the quantity of cytokine in 0.5 ml of supernatant by the number of monocytes per well.

[1] = system: β-glucan receptor on human monocytes; test: Avidity for the glucan receptor: inhibition of monocyte ingestion of zymosan particles; type: cell-based; details: for % Inhibition of monocyte ingestion: mean of two experiments
Method: Monolayers of human monocytes, prepared on siliconized glass coverslips (Czop et al., 1978, J. […] The monocyte monolayers were then washed twice with 50 ml of RPMI 1640 medium and were layered with 0.25 ml of 4.8×10^6 /ml zymosan particles (Czop and Austen, 1985, J. Immunol., 134:2588-2593). After a 30 minute incubation at 37° C., the monolayers were washed three times with 50 ml of Hank's balanced salt solution to remove noningested zymosan particles. The monolayer were then fixed and stained with Giemsa. The ingestion of zymosan particles by at least 300 monocytes per monolayer was determined by visual observation under a 1000× light microscope.
The percent inhibition of monocyte ingestion was determined by subtracting the percentage of monocytes ingesting targets after pretreatment with the neutral soluble glucan from the percentage ingesting targets after pretreatment with buffer, dividing this number by the percentage ingesting targets after pretreatment with buffer and multiplying by 100.

[2] = system: Human Peripheral Blood Mononuclear Cells (IL-1β); test: In vitro IL-1β synthesis by human peripheral blood mononuclear cells (radioimmunoassay), stimulation and priming; type: cell-based; details: for IL-1β: 24 hours, mean of two donors
Method: (§1) Venous blood was obtained from healthy male volunteers and mononuclear cells were fractionated by Ficoll-Hypaque centrifugation. The mononuclear cells were washed, resuspended in endotoxin-free RPMI-1640 culture medium ultrafiltered to remove endotoxins as described elsewhere (Dinarello et al., 1987, J. Clin. Microbiol. 25:1233-8) at a concentration of 5×10^6 cells/ml and were aliquoted into 96-well microtiter plates (Endres et al., 1989, N. E. J. Med. 320:265-271). The cells were then incubated with either 1 ng/ml endotoxin (lipopoly-saccharide, E. coli 055:B5, Sigma, St. Louis), or 10 to 1000 ng/ml PGG, at 37° C. for 24 hours in 5% CO2 and then lysed by three freeze-thaw cycles (Endres et al., 1989, N. E. J. Med. 320:265-271). Synthesis of IL-1β and TNFα were determined by specific radioimmunoassays as described elsewhere (Lisi et al., 1987, Lymph Res. 6:229-244; Lonnemann et al., 1988, Lymph. Res. 7:75-84; Van der Meer et al., 1988, J. Leukocycte Biol. 43:216-223.
(§2) To determine if neutral soluble glucan could act as a priming agent for cytokine synthesis with endotoxin, a known cytokine stimulant, mononuclear cells were pre-incubated with 1, 10, and 1000 ng/ml underivatized, aqueous soluble β-glucan for 3 hours at 37° C. in 5% CO2. The cells were washed to remove neutral soluble glucan and were then incubated with 1 ng/ml endotoxin as described above. IL-1β and TNFα were determined as described above.

[3] = system: Human Peripheral Blood Mononuclear Cells (TNFα); test: In vitro TNFα synthesis by human peripheral blood mononuclear cells (radioimmunoassay), stimulation and priming; type: cell-based; details: for TNFα: 24 hours, mean of two donors
Method: as §1, §2

[4] = system: polymicrobic infectious challenge (cecal inoculum); test: Rat model for intra-abdominal sepsis; type: in vivo; details: rats
[5] = human, in vivo, iv
Method: (§3) A randomized, double-blind, placebo-controlled clinical trial was conducted on healthy males to evaluate the safety of neutral soluble glucan (2.25 mg/kg) injected by intravenous infusion compared to a placebo control. […] The results are consistent with the in vitro data reported in the earlier examples.

[6] = system: IL-1, TNF, IL-6, IL-8 and GM-CSF; test: Clinical trial in healthy males: serum cytokines; type: in vivo, human
Method: as §3

neutrophils = test: Clinical trial in healthy males: absolute neutrophil counts; type: in vivo, human; details: 2.5 mg/kg, N 6
monocytes = test: Clinical trial in healthy males: monocyte counts; type: in vivo, human; details: 2.5 mg/kg, N 6
[7] = system: monocytes and neutrophils (killing activity); test: Ex vivo microbicidal activity of normal volunteers; type: in vivo, human; details: 2.5 mg/kg, normalized with respect to the saline control, N 6
full thickness wounds = test: Wound healing, full thickness wound in hairless mice; type: in vivo, mouse
Method: Wound healing studies were performed on hairless mouse models having full thickness wounds with and without Staphylococcus aureus infection.
Incisions were closed using steel clips at 1 cm intervals.
[…] Two micrograms of neutral soluble glucan/mouse per day was topically applied. Wounds were examined daily and rank-ordered for effectiveness of formulation for enhancement of visual based wound healing each day. Wounds were scored for closure on a scale of 0-5, with 5 indicating the most healing. In one group of mice that served as the infection model, the wound was treated with a culture of 10^7 Staphylococcus aureus 30 minutes after wounding and 2 hrs prior to treatment with the neutral soluble glucan formulation.
Histological evaluation of the wound site of each test group was made. The dermis of the control group (untreated wound) was heavily infiltrated with both lymphocytes and monocytes/macrophages. However, re-epithelialization that occurred at the epidermal layer was incomplete.

Staphylococcus aureus = test: Wound healing, full thickness wound infected with Staphylococcus aureus in hairless mice; type: in vivo, mouse; details: wound treated with 10^7 Staphylococcus aureus; topical
Method: Wound healing studies were performed on hairless mouse models having full thickness wounds with and without Staphylococcus aureus infection. […] Incisions were closed using steel clips at 1 cm intervals. Formulations of neutral soluble glucan in phosphate buffered saline were applied 30 minutes following wounding and reapplied at 24 hour intervals during the seven day post-operative period. Two micrograms of neutral soluble glucan/mouse per day was topically applied. Wounds were examined daily and rank-ordered for effectiveness of formulation for enhancement of visual based wound healing each day. Wounds were scored for closure on a scale of 0-5, with 5 indicating the most healing. In one group of mice that served as the infection model, the wound was treated with a culture of 10^7 Staphylococcus aureus 30 minutes after wounding and 2 hrs prior to treatment with the neutral soluble glucan formulation.

platelets = test: Platelet count in irradiated mice; type: in vivo, mouse; details: single IV bolus 20 hours prior to 7.5-Gy total-body irradiation, fourteen days after irradiation, FIG. 7
Method: The platelet proliferation stimulatory effect of the neutral soluble glucan was tested in an animal model system following irradiation or administration of the chemotherapeutic agent cisplatin.
More specifically, neutral soluble glucan prepared as described in Example 1 was administered to groups of 10 mice in a single IV bolus 20 hours prior to radiation exposure. Mice were bilaterally exposed to a total-body irradiation of 7.5-Gy. Fourteen days after irradiation the mice were sacrificed and whole blood samples were analyzed for peripheral blood counts.

[8] = water
[9] = pre-incubation 10-1000 ng/ml, then endotoxin as co-stimulant
[10] = mice treated topically for three days, in phosphate buffered saline

Laminarin [reference compound]
TNF-α (Human Monocytes; Table 3, column 1): 372 pg/10^6 monocytes
TNF-α (Human Monocytes; Table 3, column 2): 324 pg/10^6 monocytes
TNF-α (Human Monocytes; Table 3, column 3): 227 pg/10^6 monocytes
TNF-α Mean ± SD (Human Monocytes): 308 ± 74 pg/10^6 monocytes
TNF-α (Human Monocytes; Table 4): 1312 pg/10^6 monocytes
TNF-α stimulation (in words) (Human Monocytes): stimulated

poly-(1-6)-β-D-glucopyranosyl-(1-3)-β-D-glucopyranose [Neutral soluble glucan]
TNF-α (Human Monocytes; Table 3, column 1): 44 pg/10^6 monocytes
TNF-α (Human Monocytes; Table 3, column 2): 51 pg/10^6 monocytes
TNF-α (Human Monocytes; Table 3, column 3): 33 pg/10^6 monocytes
TNF-α Mean ± SD (Human Monocytes): 43 ± 9 pg/10^6 monocytes
TNF-α (Human Monocytes; Table 4): 16 pg/10^6 monocytes
TNF-α stimulation (in words) (Human Monocytes): no stimulation of TNF-α
receptor binding capacity (in words) ([1]; 50 μg/ml and 500 μg/ml): higher receptor binding capacity than Peak B
% Inhibition of monocyte ingestion ([1]; 50 μg/ml): 74%
% Inhibition of monocyte ingestion ([1]; 500 μg/ml): 86%
priming of IL-1β synthesis compared to endotoxin alone (in words) [2, 9]: did not result in any amplification
IL-1β ([2]; stimulant 10 ng/ml): 0.13 ng/mL
IL-1β ([2]; stimulant 100 ng/ml): 0.12 ng/mL
IL-1β ([2]; stimulant 1000 ng/ml): < 0.10 ng/mL
IL-1β synthesis over control buffer treated cells (in words) ([2]; used alone as stimulant): did not induce increased levels
priming of TNFα synthesis compared to endotoxin alone (in words) [3, 9]: did not result in any amplification
TNFα ([3]; stimulant 10 ng/ml): 0.16 ng/mL
TNFα ([3]; stimulant 100 ng/ml): 0.16 ng/mL
TNFα ([3]; stimulant 1000 ng/ml): 0.14 ng/mL
TNFα synthesis over control buffer treated cells (in words) ([3]; used alone as stimulant): did not induce increased levels
protection from lethal bacterial challenge (in words) [4]: protects rats from lethal bacterial challenge
Mortality (dead/total) ([4]; 100 μg/0.2 ml intramuscularly 24 hours and 4 hours prior to challenge, P vs. Saline <0.01): 2/10
fever or inflammatory reactions [5]: none of the patients experienced fever or inflammatory reactions
adverse effects ([5]; 2.25 mg/kg): No adverse effects were observed
elevation in IL-1, TNF, IL-6, IL-8 and GM-CSF ([6]; 2.25 mg/kg intravenous infusion): no observed elevation
changes in serum IL-1 and TNF ([6]; over time, FIGS. 5 and 6): no changes occurred
Absolute Neutrophil Counts, Mean (neutrophils; B = Baseline measurement): 4.11 × 1000/μl
Absolute Neutrophil Counts, Mean (neutrophils; Hour 8): 11.29 × 1000/μl
Absolute Neutrophil Counts, Mean (neutrophils; Hour 12): 8.18 × 1000/μl
Absolute Neutrophil Counts, Mean (neutrophils; Hour 24): 5.32 × 1000/μl
Monocyte Counts, Mean (monocytes; B = Baseline measurement): 0.24 × 1000/μl
Monocyte Counts, Mean (monocytes; Hour 8): 0.63 × 1000/μl
Monocyte Counts, Mean (monocytes; Hour 12): 0.67 × 1000/μl
Monocyte Counts, Mean (monocytes; Hour 24): 0.31 × 1000/μl
Mean Change in % Killing ([7]; Day 2): 48.96%
Mean Change in % Killing ([7]; Day 3): 39.22%
Mean Change in % Killing ([7]; Day 6): 31.17%
Mean Change in % Killing ([7]; Hour 3): 42.86%
Mean Change in % Killing ([7]; Hour 6): 32.33%
Mean Change in % Killing ([7]; Hour 24): 20.90%
histology of wounded tissue: cell infiltration (full thickness wounds; [10]): heavy infiltration of macrophages and lymphocytes
histology of wounded tissue: tissue integrity (full thickness wounds; [10]): Tissue integrity was good
wound healing (in words) (full thickness wounds; topically applied, two micrograms/mouse per day): accelerated wound healing within the dermal layer of the wound
infection of the wound (in words) (Staphylococcus aureus): effectively eliminated infection
progression to sepsis (in words) (Staphylococcus aureus): prevented the progression to sepsis
platelet cell count relative to saline treated control levels (platelets): ~3 fold
aqueous solubility [8]: approximately 100 mg/ml
aqueous solubility ([8]; pH 13): ~150 mg/mL
